Data: patent US20090232793A1, “Elastase inhibitor and acute leukemia” (YEDA RESEARCH AND DEVELOPEMENT CO., LTD., priority 2004, published 2009)
The star is where a group is joined. MeOSuc = COC(=O)CCC(=O)*; CH2Cl = ClC*

How the values were obtained:
[1] = system: normal CD34+ enriched cord blood (CB) cells; assay: proliferation and CD34+/38- percentage of normal cord blood cells; assay type: cell-based, human
Protocol: Primary AML cells, AML cell lines and human cord blood (CB) cells with or without 10 μg/ml elastase inhibitor (EI), were cultured for 3-7 days and the number of viable cells was determined using trypan blue exclusion (A). Enriched CD34+ CB cells from full term deliveries were grown in RPMI/10% FCS with SCF, FLT3L and IL6. The percentage of CD34+/38− cells from the total enriched CD34+ CB cells cultured with and without EI was determined by FACS (B).
(§1) To test the role of elastase in proliferation of AML cells, primary AML cells (1×10^6/ml), AML cell lines (1×10^4/ml) or normal CD34+ enriched cord blood (CB) cells (1×10^5/ml) were grown in RPMI supplemented with 10% FCS with or without elastase inhibitor (10 μg/ml). The number of viable cells was determined on days 0, 1, 3, 5 and 7 using trypan blue exclusion.

[2] = system: primary human AML cells; assay: homing of human AML cells to the BM of B2nmull NOD/SCID mice; assay type: in vivo; settings: for homing into the NOD/SCID mice BM: 30 min incubation with EI 10 μg/ml before injection, 16 hours
Protocol: In order to assess the effect of elastase inhibition on the in vivo migration (or homing) of human AML cells to the BM, primary AML mononuclear cells (MNC) cells (5×10^6) were injected into sublethally irradiated B2nmull NOD/SCID mice, either untreated or after 30 minute incubation with EI […].
(§2) More specifically, human primary AML MNC, enriched CD34+ AML or CB cells at the indicated cell doses were suspended in […] RPMI with 10% FCS incubated for 30 minutes in 37° C. either with or without elastase inhibitor (10 μg/ml) before injection to mice via the dorsal tail vein. Mice were sacrificed 16 hours after transplantation, BM cells flushed from both femurs and tibias bones were harvested and resuspended into single-cell suspension. The percentage of human cells was determined by immunostaining with anti-human CD45-FITC mAB (Immuno Quality Products, Groningen, The Netherlands). Human Fc receptors were blocked with human plasma (1%) and murine Fc receptors by anti-mouse CD16-CD32 (Pharmingen) (1:50). Isotype control antibodies were used in order to exclude false positive cells (BD). After staining, the cells were analyzed on a FACS Calibur (BD) using Cell Quest software.

[3] = system: normal CB enriched CD34+ cells; assay: homing of normal CB CD34+ cells to the BM of B2nmull NOD/SCID mice; assay type: in vivo; settings: normal human CD34+ enriched cells; EI pre-treated 10 μg/ml; vs untreated cells
Protocol: as §2
We next examined the homing of normal enriched CD34+ cells after elastase inhibition. In order to analyze similar primitive stem cell populations, CB CD34+ cells were compared to primary enriched CD34+ AML cells of three other patients (1.5-3×10^6) with different FAB subtypes. As with MNC cells from some patients, inhibition of primary enriched CD34+ AML cells was observed. […]

[4] = system: AML CXCR4 expression; assay: cell surface CXCR4 expression on AML cells by FACS; assay type: cell-based, human; settings: data not shown
Description: To test whether the decreased migration by elastase inhibition is eventually due to reduction in CXCR4 expression, we examined the effect of elastase inhibition on AML CXCR4 expression. […] Thus, it appears that the role of elastase in migration of AML cells is not working via CXCR4 regulation.

[5] = system: primary AML cells; assay: immunocytochemical analysis of protrusions and cell polarization on poly-L-lysine; assay type: cell-based, human
Protocol: (§3) (A) In vitro transwell migration assay of AML cells, either untreated or treated for 30 minutes with elastase inhibitor, 10 μg/ml EI (MeOSuc-AAPV-CMK) (A), anti elastase Abs (B) or a1-antitrypsin (a1-AT) (C). […] (D) Immunocytochemical analysis of primary AML cells on poly-L-lysine coated surfaces. Cells were pre-treated for 30 minutes with elastase inhibitor (EI) or left untreated, allowed to adhere in the absence (−) or presence of 200 ng/ml SDF-1, fixed and indirectly immunolabeled with anti-CXCR4 and anti-elastase Ab. Original magnification 100×.
When leukemic cells were pre-treated with elastase inhibitor (EI), the formation of SDF-1 induced protrusions was prevented (FIG. 3D). Of note, basal cell polarization in absence of SDF-1 was also abolished by EI.

[6] = system: AML cells, primary and cell lines; assay: in vitro transwell migration assay of AML cells; assay type: cell-based, human; settings: for spontaneous migration: in absence of SDF-1, 30 min pre-treatment, data not shown
Protocol: as §3
Elastase inhibitor decreases SDF-1 induced migration of AML cells. To study the role of elastase in migration of AML cells, we evaluated the effect of elastase inhibition on spontaneous, or SDF-1-induced AML migration by in vitro transwell assay. The migration assay was carried out as follows: a total of […] RPMI supplemented with 10% FCS in the presence or absence of 125 ng/mL recombinant human SDF-1 (rhSDF-1) (Peprotech, Rocky Hill, N.J.) was added to the lower chamber of a Costar 24-well transwell plates with […] pore filters (Corning, N.Y.). One hundred thousand primary MNC leukemic cells or AML cell lines with or without pretreatment for 30 min. with elastase inhibitor (EI) MeOSuc-AAPV-CMK (10 μg/ml Calbiochem, La jolla, Calif.) or monoclonal mouse anti human neutrophil elastase Ab (50-100 ul of 70 μg/ml, Dako, Glostrup, Denmark) were added to the upper chamber and were allowed to migrate to the lower chamber for 4 hours at 37° C. Migrating cells were collected from the lower chamber and counted using a FACSCalibur (Becton Dickinson).

[7] = system: U937; assay: proliferation, viable cells by trypan blue exclusion; assay type: cell-based, human; settings: EI 10 μg/ml, 7 days in culture
Protocol: as §1
(§4) The effect of EI on the proliferative rate of primary MNC AML cells and AML cell lines (ML-2, U937) was evaluated after 3-7 days respectively in culture. […] After 7 days in culture the number of ML2 and U937 was increased and cell proliferation was inhibited by culturing cells in the presence of EI (FIG. 6A).

[8] = system: ML-2; assay: as above; assay type: cell-based, human; settings: ML2; EI 10 μg/ml; 7 days in culture
Protocol: as §1, §4

[9] = system: primary AML cells; assay: as above; assay type: cell-based, human; settings: primary MNC AML cells; EI 10 μg/ml; 3 days in culture
Protocol: as §1, §4

[10] = system: HL60 AML cell line; assay: egress of engrafted HL60 cells from BM into the circulation of NOD/SCID mice; assay type: in vivo, human
Protocol: (§5) More specifically, human primary AML MNC cells (10-30×10^6) or HL60 AML cell line (20×10^6) was injected into NOD/SCID mice. Two-four weeks later, EI (1 mg) was injected once a day for 4 consecutive days. PB from mice asphyxiated with dry ice was collected by cardiac aspiration in heparinized tubes and BM was collected as mentioned above. Percentage of human cells was determined by immunofluorescence for CD45 as described above.

[11] = system: human primary AML MNC cells; assay: egress of engrafted primary AML cells from BM into the circulation of NOD/SCID mice; assay type: in vivo; settings: for BM (%) human CD45+ cells / PB (%) human CD45+ cells / PB/BM: EI 1 mg x 4 days
Protocol: In order to test this assumption, primary AML cells (20-40×10^6) were injected into sublethally irradiated NOD/SCID mice to establish human AML-mice chimerism and AML egress from the bone marrow into the circulation was monitored, two-four weeks later, in mice treated with elastase inhibitor as compared to non treated mice.
as §5

[12] = system: primary AML cells; assay: cell surface elastase expression by FACS after SDF-1; assay type: cell-based, human; settings: SDF-1 200 ng/ml for 1 and 3 hours
Protocol: (§6) Cell surface elastase on primary AML and cell lines or on normal CB CD34+ enriched cells was analyzed by flow cytometry as follows: AML cells were incubated with polyclonal rabbit anti-human elastase (Biodesign, Kennebunkport, Me.) for 30 min., washed and antibody binding was detected using secondary anti-rabbit-FITC (FIG. 2A upper panel and 2B).
(§7) In order to confirm our assumption, primary AML cells and normal CB CD34+ cells were treated with SDF-1 (200 ng/ml) for 1 and 3 hours, and expression of cell surface elastase was determined by FACS (FIG. 7).

[13] = system: normal CB CD34+ cells; assay: as above; assay type: cell-based, human; settings: SDF-1 200 ng/ml for 1 and 3 hours
Protocol: as §6, §7

Substance: MeOSuc-AAPV-CH2Cl [EI]
- percentage of primitive progenitor cells CD34+/38− ([1]; 3 days in culture in the presence of cytokines (SCF, FLT3L, IL6) and EI): significantly increased
- proliferation rate ([1]; normal CB CD34+ cells, EI 10 μg/ml): enhanced
- homing into the NOD/SCID mice BM ([2]; M2 and M4 primary AML cells, vs untreated cells): significantly decreased
- homing to the murine BM ([2]; enriched CD34+ AML progenitors, EI pre-treated 10 μg/ml, vs untreated cells): decreased
- homing into the NOD/SCID mice BM ([2]; primary M1 and M5 AML cells): not inhibited but rather increased
- homing to the murine BM [3]: increased
- level of cell surface CXCR4 expression [4]: did not change
- formation of SDF-1 induced protrusions ([5]; 30 min pre-treatment, 200 ng/ml SDF-1): prevented
- basal cell polarization ([5]; in absence of SDF-1): abolished
- spontaneous migration [6]: also reduced
- SDF-1 dependent migration of the cells ([6]; pre-incubation 30 min with 5-10 μg/ml EI, toward 125 ng/ml SDF-1, 4 hours, p=0.039): significantly reduced
- cell proliferation [7]: inhibited
- cell proliferation [8]: inhibited
- number of viable AML cells [9]: significantly decreased
- BM (%) human CD45+ cells ([10]; HL-60, EI 1 mg x 4 days): 4%
- PB (%) human CD45+ cells ([10]; HL-60, EI 1 mg x 4 days): 2.4%
- PB/BM ([10]; HL-60, EI 1 mg x 4 days): 0.6
- AML cell egress to the PB ([10]; human AML line, EI 1 mg once a day, 4 consecutive days, vs untreated mice): decreased
- AML cell egress to the PB ([11]; human primary cells, EI 1 mg once a day, 4 consecutive days, vs untreated mice): decreased
- BM (%) human CD45+ cells ([11]; patient #1 M2): 80%
- PB (%) human CD45+ cells ([11]; patient #1 M2): 6%
- PB/BM ([11]; patient #1 M2): 0.07
- BM (%) human CD45+ cells ([11]; patient #2 M4): 50%
- PB (%) human CD45+ cells ([11]; patient #2 M4): 2.5%
- PB/BM ([11]; patient #2 M4): 0.05
- BM (%) human CD45+ cells ([11]; patient #3 M4): 12.7%
- PB (%) human CD45+ cells ([11]; patient #3 M4): 0.5%
- PB/BM ([11]; patient #3 M4): 0.039
- BM (%) human CD45+ cells ([11]; patient #4): 16.9%
- PB (%) human CD45+ cells ([11]; patient #4): 0.25%
- PB/BM ([11]; patient #4): 0.014

Substance: SDF-1: chemokine, also called pre-B-cell growth-stimulating factor; recombinant human SDF-1 (Peprotech)
- cell surface elastase expression [12]: increase
- cell surface elastase expression [13]: decreases

Substance: a1-antitrypsin
- spontaneous migration [6]: affected
